Measurements reported in article PMC3514216, “SRC Homology 2 Domain Binding Sites in Insulin, IGF-1 and FGF receptor mediated signaling networks reveal an extensive potential interactome” (Cell Communication and Signaling : CCS, 2012).

System: panel of 50 SH2 domains
Assay: SPOT peptide array probed with each of 50 GST-SH2 domains
Assay type: binding
Conditions: for SH2 Domains >3X / 2X < SH2 Domains < 3X: SPOT192 peptide array; for SH2 Domains >3X: list of GST-SH2 domains with spot intensity >3X array mean (array-positive); for 2X < SH2 Domains < 3X: list of GST-SH2 domains with spot intensity between 2X and 3X array mean (indeterminate range)
Excerpt: The use of addressable peptide arrays is a reproducible and semi-quantitative approach that has been extensively validated for studying protein interactions with peptide ligands. To investigate connections between SH2 domain proteins and their putative phosphorylated docking sites on cell surface receptors, we developed addressable arrays consisting of 192 phosphotyrosine peptides. This peptide set was assembled using 71 phosphotyrosine peptide motifs corresponding to all of the cytoplasmic tyrosine residues within the FGF receptors (FGFR1-4), insulin receptor (InsR) and IGF-1 receptor (IGF-1R) (Figure 1A). Activation of these receptors results in the phosphorylation of associated scaffold proteins, and so 75 phosphotyrosine peptides corresponding to a comprehensive list of tyrosine residues within insulin receptor substrates (IRS-1 and IRS-2) and fibroblast receptor substrates (FRS-2 and FRS-3) were included. In addition, 33 phosphotyrosine peptides were incorporated from the downstream signaling proteins PLC-γ1, p130Cas (BCAR1) and p62DOK1. […] These control peptides provide a reference and establish the empirical cut-off for designated binding interactions (Table 1). No discrimination was made against peptides on the basis of reported phosphorylation state in order to examine a diverse and unbiased set of motifs. The resulting set of 192 phosphotyrosine peptides and their corresponding position in the proteins of origin is noted in Additional file 1: Table S1. Addressable arrays were synthesized as membrane-bound 11-mer peptides using the SPOT synthesis technique. While the majority of SH2 domains recognize residues C-terminal to the phosphotyrosine in their cognate peptide ligands, additional contacts between SH2 domains and residues N-terminal to the phosphotyrosine are observed for the SH2 domain of Sh2d1a (SAP) and cannot be ruled out in other cases. Peptides were synthesized with six flanking residues C-terminal to the phosphotyrosine and four residues N-terminal to the phosphotyrosine.
To assess the potential network of SH2 domain interactions we selected 50 SH2 domains representing 28 of the 38 families of SH2 domains (Figure 1B) all of which we have previously shown can be expressed and purified. These include a number of extensively studied SH2 domains (Src, Grb2, PLCγ), as well as a number of less studied SH2 domains from proteins such as Shd, She, Shf, Slnk (Sh2d6), Sh2d1a (SAP), Sh2d1b (Eat-2), and Brdg1. To address potential variability in specificity within families we employed all members from the SHB, CRK, GRB2, SRC and ABL families (families are indicated with complete Capitalized lettering).
SH2 domains were arrayed as GST fusion proteins and detected using anti-GST primary antibodies and near-infrared labeled secondary antibodies. In an effort to present a dataset with minimal false positives, we chose an empirical cutoff based on the array average across all peptide spots to classify interactions (Figure 1A). In cases where the intensity of the signal for an individual SH2-domain binding event exceeded the mean intensity of all the peptides on the membrane by three-fold were scored as “array positives” [22]. Non-binding was judged in cases where the intensity of a spot was less than the mean intensity of all spots on the membrane and these were scored as “array negatives”. Peptides with signal intensities between 1X and 3X mean were scored as “indeterminate” and ascribed as neither array positive binding interactions nor array-negative non-binders. […] This signature may be indicative of promiscuity differences between phosphopeptides or there may be a subset of peptides which interact in a nonspecific fashion with either the GST fusion tag or one of the antibodies used for detection, resulting in false positives. […]

Substance | SH2 Domains >3X | 2X < SH2 Domains < 3X | Other SH2 domains bound (additional array-positive SH2 domains) (SH2 domains with intensity >3X array mean, GST-SH2 0.25 μM, 1 mM DTT)
NLREpYLQARRP [E08] | BRDG1, DAPP1, MIST, PLCG2_N, PTPN11_C, Sh2b, SHB, SHF, SHD, SYK_C, TENC1 | BCAR3, BMX, PTPN11_N, SHE | –
PSDApYYGPEDP [C10] | DAPP1, PLCG2_N, PLCG2_C | BLK, BMX, LCK, RASA1_N | –
NKLVpYENINGL [G04] | GADS, GRAP, GRB2, GRB7, SH2D2A, SH3BP2 | ABL1 | –
EHIPpYTHMNGG [B06] | – | PI3K1_C | –
RLEYpYENEKKW [B20] | ABL1, ABL2, BMX, BRK, FER, FGR, HCK, GADS, GRAP, GRB2, GRB7, MATK, MIST, PI3K1_N, PI3K1_C, RIN1, SH2D1B, SH2D2A, SH3BP2, SHF, TENC1, VAV1 | BCAR3, BRDG1, CRK, ITK, PLCG2_N, PTPN11_N, PTPN11_C, Sh2b, SHC1, SHD, SRC | –
GGPLpYVLVEYA [F07] | MIST, RASA1_N, SHE, SYK_C, ZAP70_N | ITK, SHD | –
VSCApYQVARGM [E11] | BRDG1 | CRK, ITK, MIST, PLCG2_N, SHB, SHF | –
PPALpYAEPLDS [11-mer phosphotyrosine peptide, p62DOK1 (Y296)] | – | – | Abl1, Nck1, Vav1, Zap70_N
APVSpYADMRTG [C21] | – | MIST | –
TNELpYMMMRDS [E17] | – | PI3K1_C | –
RKVGpYLRKPKS [B18] | BCAR3, BMX, BRDG1, BRK, FER, PI3K1_N, RIN1, TENC1 | MATK, MIST, PLCG2_N, PTPN11_C, SHB, SHF, SHD | –
SDAYpYGPEDPH [C11] | – | BLK, BMX, DAPP1, FYN, GRB7, LCK, LYN, PLCG2_C, RASA1_C, SH2D1B, SHC1 | –
YETDpYYRKGGK [B01] | BCAR3, BMX, BRDG1, BRK, ITK, PLCG2_N, RIN1, TENC1 | FER, MIST, PTPN11_C, SH2D2A, SHB, SHF, SHD, SHE, SYK_C | –
AACDpYESCATA [A01] | PI3K1_C | CRKL, HCK | –
PRQSpYVDTSPA [C20] | PI3K1_C | – | –
VSCTpYQLARGM [E23] | BRDG1, MIST, PLCG2_N, SHF | ITK, PLCG2_C, SHB | –
ALLNpYENLPSL [G05] | ABL1, ABL2, CRK, FER, GADS, GRAP, GRB2, GRB7, PI3K1_C, SH2D2A, SH3BP2, TENC1 | BRK, PI3K1_N | –

Substance | SH2 Domains >3X | 2X < SH2 Domains < 3X | Other SH2 domains bound (additional array-positive SH2 domains) (SH2 domains with intensity >3X array mean, GST-SH2 0.25 μM, 1 mM DTT)
RSDDpYMPMSPA [D19] | – | PI3K1_C | –
LTGVpYRLCLSA [D08] | – | BCAR3, BRDG1, MIST, TENC1 | –
GLDEpYDEVPMP [A05] | NCK1 | BRK, FER | –
WRGDpYGGKKQL [H04] | BCAR3, BRDG1, BRK, DAPP1, FER, MIST, RIN1, TENC1 | BMX, ITK, PLCG2_N, Sh2b, SH3BP2, SHF, SHD, SYK_C | –
ENSLpYSPTWEG [H14] | ABL2, FYN, LYN, NCK1, SHC1, VAV1 | ABL1, BLK, LCK, SH2D1B, SHIP1 | –
SLDEpYTLMRAT [D14] | – | PI3K1_C | –
QEGWpYRALTDL [D05] | CRK | ABL1, ABL2, TENC1 | –
THDLpYMIMREC [F10] | – | PI3K1_C | –
VSCApYQVARGM [F14] | BRDG1 | CRK, ITK, MIST, PLCG2_N, PLCG2_C, SHF, SYK_C | –
RGMEYpLASKKA [E12] | BCAR3, BRDG1, TENC1, ZAP70_N | BMX, FER, MIST, PLCG2_N, SHB, SHF | –
PRLEpYYESEKK [C24] | – | ZAP70_N | –
AEDSpYGLVAPA [D06] | FGR, FYN, HCK, LCK, LYN, SH2D1B, SHC1, SHIP1, SRC, YES | BLK | –
STVEpYSTVVHS [A11] | BRDG1, BRK, CRK, PTPN11_N, PTPN11_C, SH2D1B, SHC1, SHIP1 | ABL2, RIN1 | –
EYRKpYGGAKLN [B07] | BCAR3, BMX, BRDG1, BRK, FER, PLCG2_N, TENC1 | ITK, MIST, PTPN11_C, RIN1, SHF, SHD, SYK_C | –
DPNGpYMMMSPS [C07] | PI3K1_C | – | –
QQGLpYQVPGPS [H07] | CRK, CRKL | – | –
